According to paper PMC10518717, “High-Throughput Screening and Proteomic Characterization of Compounds Targeting Myeloid-Derived Suppressor Cells” (Molecular & Cellular Proteomics : MCP, 2023):

Key:
Cd74 = biological target: T1, Cd74 (Mus musculus, UniProt P04441); test: Solvent-induced protein precipitation profiling; type: binding; settings: 7.8 μM and 26 μM; relative to compound 3 at 10 μM
T1 construct: We treated NUP-MDSC cell lysate with compound 2; endogenous in cells; host or cells: mouse NUP-MDSC (lysate)
T1 sequence (P04441 1-279): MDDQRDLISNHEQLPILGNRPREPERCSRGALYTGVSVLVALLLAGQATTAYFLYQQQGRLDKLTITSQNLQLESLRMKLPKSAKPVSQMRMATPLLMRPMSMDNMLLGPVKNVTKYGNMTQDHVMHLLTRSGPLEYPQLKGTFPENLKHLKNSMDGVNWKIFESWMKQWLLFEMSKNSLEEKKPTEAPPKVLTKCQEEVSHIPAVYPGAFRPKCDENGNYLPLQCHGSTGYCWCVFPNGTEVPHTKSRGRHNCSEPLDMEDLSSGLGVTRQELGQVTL
Description: (§1) NUP-MDSCs were differentiated as described above, washed twice with PBS, resuspended in lysis buffer (PBS, 0.4% IGEPAL CA-630, 1× Halt Protease-Inhibitor Cocktail (Thermo Fisher Scientific)), and subjected to three freeze-thaw cycles. The lysate was cleared by centrifugation for 30 min at 18,000g and 4 °C. The soluble fraction was diluted to 4 mg/ml and allowed to warm up to room temperature. Equal volumes of lysate were treated in triplicates with 100 x compound stock solutions (in DMSO) or DMSO for 15 min at room temperature (final concentrations: cmpd 2: 7.8 μM (3xEC50) and 26 μM (10xEC50), cmpd 3: 10 μM and 26 μM). […]
(§2) Peptides were analyzed via LC-MS/MS on a Vanquish Neo UHPLC coupled to an Orbitrap Eclipse Tribrid mass spectrometer (Thermo Fisher Scientific). […] Samples were measured, employing a MS3 method with real-time search. […] To obtain quantitative information on TMT reporter ions, each peptide precursor was fragmented again as for MS2 analysis followed by synchronous selection of the up to 10 most intense peptide fragments in the iontrap ([37]) and further fragmentation via HCD using an NCE of 55%. […] The MS3 scan was recorded in the OT at 30,000 resolution (scan range 110–500 m/z, isolation window of 0.7 m/z, AGC of 2e4 charges, maxIT of 120 ms). […]

Acyp1 = biological target: T2, Acyp1 (Mus musculus, UniProt P56376); test: Solvent-induced protein precipitation profiling; type: binding; settings: 7.8 μM and 26 μM; relative to compound 3 at 10 μM
T2 construct: We treated NUP-MDSC cell lysate with compound 2; endogenous in cells; host or cells: mouse NUP-MDSC (lysate)
T2 sequence (P56376 1-99): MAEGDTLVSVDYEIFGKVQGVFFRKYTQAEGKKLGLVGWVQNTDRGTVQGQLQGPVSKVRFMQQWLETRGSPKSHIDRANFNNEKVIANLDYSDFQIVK
Description: as §1, §2

CCOC(=O)c1nnn(-c2nn3nnnc3c3ccccc23)c1C [compound 2]
stabilization against solvent-induced aggregation of Cd74 (Cd74): dose-dependent stabilization
stabilization against solvent-induced aggregation of Acyp1 (Acyp1): dose-dependent stabilization
